Source: ChEMBL document CHEMBL3639048, “2,5-methano- and 2,5-ethano-tetrahydrobenzazepine derivatives and use thereof to block reuptake of norepinephrine, dopamine, and serotonin” (2015)

Tests used:
Type in all cases: cell membranes
[1] = molecular target: Sodium-dependent dopamine transporter (Homo sapiens, UniProt Q01959); assay: Radioligand Binding Assay: Compounds were dissolved in 100% DMSO at a concentration 100 times the desired highest assay concentration, serially diluted 1:3 in 100% DMSO, and 0.4 ul/well of each solution was dispensed to a Nunc polypropylene, round bottom, 384-well plate. […] 20 ul/well of a 2x membrane preparation (12.5 ug/ml in 30 mM sodium phosphate buffer, pH 7.9 at 4 C.) and 20 ul/well of a 2x radioligand solution (250 pM [125I]RTI-55 in 30 mM sodium phosphate buffer, pH 7.9 at 4 C.) were added to the well and the reaction incubated for 1 hour at room temperature. The contents of the assay plate were then transferred to a Millipore MultiscreenHTS GF/B filter plate which was pretreated with 0.5% PEI for at least one hour. The plate was vacuum-filtered and washed with 7 washes of 100 ul/well 50 mM Tris-Cl, pH 7.5, 120 mM NaCl, 5 mM KCl chilled to 4 C.
[2] = molecular target: Sodium-dependent serotonin transporter (Homo sapiens, UniProt P31645); assay: Radioligand Binding Assay: Compounds were dissolved in 100% DMSO at a concentration 100 times the desired highest assay concentration, serially diluted 1:3 in 100% DMSO, and 0.4 ul/well of each solution was dispensed to a Nunc polypropylene, round bottom, 384-well plate. […] 20 ul/well of a 2x membrane preparation (15 ug/ml in 50 mM Tris-Cl, pH 7.5, 120 mM NaCl, 5 mM KCl) and 20 ul/well of a 2x radioligand solution (520 pM [125I]RTI-55 in 50 mM Tris-Cl, pH 7.5, 120 mM NaCl, 5 mM KCl) were added to each well and the reaction incubated for 1 hour at room temperature. The contents of the assay plate were then transferred to a Millipore MultiscreenHTS GF/B filter plate which was pretreated with 0.5% PEI for at least one hour. The plate was vacuum filtered and washed with 7 washes of 100 uA/well 50 mM Tris-Cl, pH 7.5, 120 mM NaCl, 5 mM KCl chilled to 4 C.
[3] = molecular target: Sodium-dependent noradrenaline transporter (Homo sapiens, UniProt P23975); assay: Radioligand Binding Assay: Compounds were dissolved in 100% DMSO at a concentration 100 times the desired highest assay concentration, serially diluted 1:3 in 100% DMSO, and 1.0 ul/well of each solution was dispensed to a Nunc polypropylene, round bottom, 384-well plate. […] 50 ul/well of a 2x membrane preparation (0.4 mg/ml in 50 mM Tris-Cl, pH 7.5, 120 mM NaCl, 5 mM KCl) and 50 ul/well of a 2x radioligand solution (4 nM [3H]nisoxetine in 50 mM Tris-Cl, pH 7.5, 120 mM NaCl, 5 mM KCl) were added to the well and the reaction incubated for 1 hour at room temperature. The contents of the assay plate were then transferred to a Millipore MultiscreenHTS GF/B filter plate which was pretreated with 0.5% PEI for at least one hour. The plate was vacuum filtered and washed with 7 washes of 100 ul/well 50 mM Tris-Cl, pH 7.5, 120 mM NaCl, 5 mM KCl chilled to 4 C.
Chain of Sodium-dependent noradrenaline transporter (P23975 whole entry): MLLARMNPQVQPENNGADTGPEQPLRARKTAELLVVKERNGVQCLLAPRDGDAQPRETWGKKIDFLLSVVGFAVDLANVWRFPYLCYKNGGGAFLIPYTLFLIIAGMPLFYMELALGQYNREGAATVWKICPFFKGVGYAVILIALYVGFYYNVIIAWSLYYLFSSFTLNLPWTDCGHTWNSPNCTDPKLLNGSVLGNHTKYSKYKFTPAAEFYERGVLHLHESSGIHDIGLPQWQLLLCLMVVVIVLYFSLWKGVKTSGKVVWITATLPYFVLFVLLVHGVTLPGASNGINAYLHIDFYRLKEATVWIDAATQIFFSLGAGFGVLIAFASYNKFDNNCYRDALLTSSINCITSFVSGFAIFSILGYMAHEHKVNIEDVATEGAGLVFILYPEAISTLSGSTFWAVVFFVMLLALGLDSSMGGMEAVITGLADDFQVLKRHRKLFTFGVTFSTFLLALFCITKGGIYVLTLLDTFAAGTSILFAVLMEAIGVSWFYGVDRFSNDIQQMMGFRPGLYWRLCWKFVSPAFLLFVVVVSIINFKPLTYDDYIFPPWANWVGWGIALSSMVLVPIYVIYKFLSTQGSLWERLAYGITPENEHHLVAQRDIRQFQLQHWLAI

Chain of Sodium-dependent serotonin transporter (P31645 whole entry): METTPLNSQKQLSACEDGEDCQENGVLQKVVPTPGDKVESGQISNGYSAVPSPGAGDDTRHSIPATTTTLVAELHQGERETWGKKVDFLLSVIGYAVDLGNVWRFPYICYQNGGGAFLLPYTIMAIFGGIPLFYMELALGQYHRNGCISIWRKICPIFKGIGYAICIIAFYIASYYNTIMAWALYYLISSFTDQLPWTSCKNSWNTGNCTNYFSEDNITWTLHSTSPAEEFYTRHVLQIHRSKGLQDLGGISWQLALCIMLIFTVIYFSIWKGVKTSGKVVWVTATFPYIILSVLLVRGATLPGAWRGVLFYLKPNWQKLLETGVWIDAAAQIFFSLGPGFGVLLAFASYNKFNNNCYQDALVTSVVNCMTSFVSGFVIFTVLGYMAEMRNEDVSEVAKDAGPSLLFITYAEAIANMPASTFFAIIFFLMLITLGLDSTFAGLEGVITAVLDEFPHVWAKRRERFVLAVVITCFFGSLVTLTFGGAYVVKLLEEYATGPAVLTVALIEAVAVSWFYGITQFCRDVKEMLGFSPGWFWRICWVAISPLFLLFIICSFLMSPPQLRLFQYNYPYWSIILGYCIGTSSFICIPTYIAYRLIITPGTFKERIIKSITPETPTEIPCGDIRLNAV
Chain of Sodium-dependent dopamine transporter (Q01959 whole entry): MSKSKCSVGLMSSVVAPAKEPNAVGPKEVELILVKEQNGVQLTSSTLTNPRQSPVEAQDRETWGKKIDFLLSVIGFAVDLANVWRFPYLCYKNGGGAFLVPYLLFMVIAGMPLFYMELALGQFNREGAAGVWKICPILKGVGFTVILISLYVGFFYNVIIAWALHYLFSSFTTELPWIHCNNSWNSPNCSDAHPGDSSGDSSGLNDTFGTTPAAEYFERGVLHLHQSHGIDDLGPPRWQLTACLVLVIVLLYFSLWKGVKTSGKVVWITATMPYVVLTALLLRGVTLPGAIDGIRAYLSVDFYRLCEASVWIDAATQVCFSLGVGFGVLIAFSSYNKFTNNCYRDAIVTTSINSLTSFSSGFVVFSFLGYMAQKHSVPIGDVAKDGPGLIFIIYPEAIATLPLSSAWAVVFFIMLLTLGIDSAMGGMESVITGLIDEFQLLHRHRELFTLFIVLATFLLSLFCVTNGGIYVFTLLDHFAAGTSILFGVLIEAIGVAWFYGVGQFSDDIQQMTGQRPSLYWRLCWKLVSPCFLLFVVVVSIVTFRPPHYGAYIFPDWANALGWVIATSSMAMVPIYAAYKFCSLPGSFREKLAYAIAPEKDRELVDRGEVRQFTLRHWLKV

O=c1[nH]c2ccc(-c3ccc4c(c3)CN3CCC4(c4ccc(Cl)c(Cl)c4)CC3)cc2o1
IC50 [1]: 25.5 nM
IC50 [2]: 9.3 nM
IC50 [3]: 451 nM
